# Assay results taken from patent US9302999B2, “Substituted triazoles as herbicides” (E. I. DU PONT DE NEMOURS AND COMPANY, priority 2012, dated 2016).
# Tests used:
# Oilseed Rape = test: Test C preemergence: oilseed rape; assay type: in vivo; settings: scale 0 (no effect) to 100 (complete control)
# Waterhemp = test: Test C postemergence: waterhemp; assay type: in vivo
# Outline: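 Plants at the 1- to 4-leaf stage (2 to 18 cm tall), grown in pots of peat moss/vermiculite planting medium, received postemergence applications of the formulated test chemicals. After 13 to 15 days in a greenhouse, injury was scored visually versus controls from 0 (no effect) to 100 (complete control).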
Structure (SMILES),"Plant response rating, Oilseed Rape (Oilseed Rape; 16 g ai/ha)","Plant response rating, Oilseed Rape (Oilseed Rape; 31 g ai/ha)","Plant response rating, Waterhemp (Waterhemp; 62 g ai/ha, scale 0 to 100 (0 no effect, 100 complete control))","Plant response rating, Waterhemp (Waterhemp; 250 g ai/ha, scale 0 to 100)"
CCOc1nn(-c2ccc(Br)cc2)nc1Cc1ccnc(C(F)(F)F)c1 [Compound 189],5,,,
CCCc1nn(-c2ccc(C(F)(F)F)c(F)c2)nc1Oc1ccnc(C(F)(F)F)c1 [Compound 185],,60,90,
CCc1nn(-c2ccc(F)cc2)nc1Oc1ccnc(C(F)(F)F)c1 [Compound 166],,50,,98
